pIC50: −log10 of the molar value. Counter-ions that a name gives are not always drawn.
Molecular target: sigma receptors
Assay: Inhibition of ^3H-DTG binding to sigma receptors in rat brain in vitro
Details: Table I; 2 nM ^3H-DTG, rat brain without cerebellum, 25° C., 20 min
With `c1ccc2c(c1)COC21CCN(CCCCN2CCC3(CC2)OCc2ccccc23)CC1` [Compound 1a, 1,4-Bis[spiro[isobenzofuran-1(3 H),4'-piperidin]-1'-yl]butane] the pIC50 was 9.19. For `Fc1ccc(C2CCN(CCCCN3CCC(c4ccc(F)cc4)CC3)CC2)cc1` [Compound 1b, 1,4-Bis[4-(4-fluorophenyl)piperidin-1-yl]butane], the pIC50 was 9.39. `c1ccc2c(c1)COC1(CCN(CCCCN3CCC4(CC3)Cc3ccccc3CO4)CC1)C2` [Compound 1c, 1,4-Bis[1,4-dihydro-spiro[2-benzopyran-3,4'-piperidin]-1'-yl]butane] gave a pIC50 of 7.80. In the case of `Fc1ccc(C2CCN(CCCCCN3CCC(c4ccc(F)cc4)CC3)CC2)cc1` [Compound 1d, 1,5-Bis[4-(4-fluorophenyl)piperidin-1-yl]pentane, 2.5 fumarate], the pIC50 was 8.85. With `Fc1ccc(N2CCN(CCCCN3CCN(c4ccc(F)cc4)CC3)CC2)cc1` [Compound 1e, 1,4-Bis[4-(4-fluorophenyl)piperazin-1-yl]butane] the pIC50 was 9.05. In the case of `c1ccc2c(c1)COC21CCN(CCCCCCN2CCC3(CC2)OCc2ccccc23)CC1` [Compound 1f, 1,6-Bis[spiro[isobenzofuran-1(3 H),4'-piperidin]-1'-yl]hexane], the pIC50 was 9.15. For `Fc1ccc2c(c1)C1(CCN(CCCCN3CCC4(CC3)OCc3ccc(F)cc34)CC1)OC2` [Compound 1g, 1,4-Bis[6-fluoro-spiro[isobenzofuran-1(3 H),4'-piperidin]-1'-yl]butane], the pIC50 was 9.36. `c1ccc2c(c1)COC21CCN(CCCCCN2CCC3(CC2)OCc2ccccc23)CC1` [Compound 1h, 1,5-Bis[spiro[isobenzofuran-1(3 H),4'-piperidin]-1-yl]pentane tetrafumarate] gave a pIC50 of 8.70. In the case of `c1ccc2c(c1)OC1(CCN(CCCCN3CCC4(CC3)Oc3ccccc3O4)CC1)O2` [Compound 1i, 1,4-Bis[spiro[1,3-benzodioxol-2,4'-piperidin]-1'-yl]butane], the pIC50 was 7.35. `FC(F)(F)c1ccc2c(c1)C1(CCN(CCCCN3CCC4(CC3)OCc3ccc(C(F)(F)F)cc34)CC1)OC2` [Compound 1j, 1,4-Bis[6-(trifluoromethyl)-spiro[isobenzofuran-1(3 H),4'-piperidin]-1-yl]butane, dihydrochloride] showed a pIC50 of 7.72. For `c1ccc2c(c1)COCC21CCN(CCCCN2CCC3(CC2)COCc2ccccc23)CC1` [Compound 1k, 1,4-Bis[1,3-dihydro-spiro[2-benzopyran-4,4'-piperidin]-1'-yl]butane], the pIC50 was 8.06. In the case of `Cc1ccc2c(c1)COC21CCN(CCCCN2CCC3(CC2)OCc2cc(C)ccc23)CC1` [Compound 1l, 1,4-Bis[5-methyl-spiro[isobenzofuran-1(3 H),4'-piperidin]-1-yl]butane], the pIC50 was 7.64. In the case of `Fc1cccc2c1C1(CCN(CCCCN3CCC4(CC3)OCc3cccc(F)c34)CC1)OC2` [Compound 1m, 1,4-Bis[7-fluoro-spiro[isobenzofuran-1(3 H),4'-piperidin]-1'-yl]butane], the pIC50 was 8.29. `c1ccc2c(c1)COC21CC2CCC(C1)N2CCCCN1C2CCC1CC1(C2)OCc2ccccc21` (stereo not drawn) [Compound 1n, 1,4-Bis[spiro[isobenzofuran-1(3 H),3'-8'-azabicyclo[3',2',1']octan]-8'-yl]butane] showed a pIC50 of 7.00. In the case of `Fc1ccc(C2=CC3CCC(C2)N3CCCCN2C3C=C(c4ccc(F)cc4)CC2CC3)cc1` [Compound 1o, 1,4-Bis[3-(4-fluorophenyl)-8-azabicyclo[3,2,1]oct-2-en-8-yl]butane], the pIC50 was 7.13. With `C1=CC2(CCN(CCCCN3CCC4(C=Cc5ccccc5O4)CC3)CC2)Oc2ccccc21` [Compound 1p, 1,4-Bis[spiro[1-benzopyran-2,4'-piperidin]-1-yl]butane, difumarate] the pIC50 was 7.49. For `c1ccc2c(c1)CCCC21CCN(CCCCN2CCC3(CCCc4ccccc43)CC2)CC1` [Compound 1q, 1,4-Bis[3,4-dihydro-spiro[naphthalene-1(2 H),4'-piperidin]-1'-yl]butane], the pIC50 was 8.40. Work on `c1ccc2c(c1)CCC1(CCN(CCCCN3CCC4(CCc5ccccc5O4)CC3)CC1)O2` [Compound 1r, 1,4-Bis[3,4-dihydro-spiro[1-benzopyran-2,4'-piperidin]-1-yl]butane, difumarate] yielded a pIC50 of 6.89. `c1ccc2c(c1)CSC21CCN(CCCCN2CCC3(CC2)SCc2ccccc23)CC1` [Compound 1s, 1,4-Bis[spiro[isobenzothiophene-1(3 H),4'-piperidin]-1-yl]butane] gave a pIC50 of 10.40. `c1ccc2c(c1)CCOC21CCN(CCCCN2CCC3(CC2)OCCc2ccccc23)CC1` [Compound 1t, 1,4-Bis[spiro[1-benzopyran-2,4'-piperidin]-1-yl]butane, 1.25 fumarate] gave a pIC50 of 9.42. `c1ccc2c(c1)OCCC21CCN(CCCCN2CCC3(CCOc4ccccc43)CC2)CC1` [Compound 1u, 1,4-Bis[spiro[1-benzopyran-4,4'-piperidin]-1'-yl]butane] gave a pIC50 of 9.77. For `c1ccc2c(c1)COC21CCN(CCCN2CCC3(CC2)OCc2ccccc23)CC1` [Compound 2a, 1,3-Bis[spiro[isobenzofuran-1(3 H),4'-piperidin]-1'-yl]propane difumarate], the pIC50 was 9.12. For `Fc1ccc(C2CCN(CCCN3CCC(c4ccc(F)cc4)CC3)CC2)cc1` [Compound 2b, 1,3-Bis[4-(4-fluorophenyl)piperidin-1-yl]propane], the pIC50 was 9.77. Work on `c1ccc2c(c1)COC21CCN(CCN2CCC3(CC2)OCc2ccccc23)CC1` [Compound 2c, 1,2-Bis[spiro[isobenzofuran-1(3 H),4'-piperidin]-1'-yl]ethane] yielded a pIC50 of 9.64. In the case of `Fc1ccc(C2CCN(CCN3CCC(c4ccc(F)cc4)CC3)CC2)cc1` [Compound 2d, 1,2-Bis[4-(4-fluorophenyl)piperidin-1-yl]ethane], the pIC50 was 9.30. Work on `c1ccc2c(c1)COC21CCN(CCN(CCN2CCC3(CC2)OCc2ccccc23)C2CCCC2)CC1` [Compound 3a, N,N-Bis[2-spiro[isobenzofuran-1(3 H),4'-piperidin]-1'-ylethyl]-N-cyctopentylamine, trihydrochloride] yielded a pIC50 of 8.82. `CN(CCN1CCC2(CC1)OCc1ccccc12)CCN1CCC2(CC1)OCc1ccccc12` [Compound 3b, N,N-Bis[2-spiro[isobenzofuran-1(3 H),4'-piperidin]-1'-ylethyl]-N-methylamine, trihydrochloride] showed a pIC50 of 8.31. `C1=CC2(CCN(CCCCN3CCC4(C=Cc5ccccc54)CC3)CC2)c2ccccc21` [Compound 4a, 1,4-Bis[spiro[ind-2-en-1,4'-piperidin]-1'-yl]butane] gave a pIC50 of 8.40. Work on `c1ccc2c(c1)CCC21CCN(CCCCN2CCC3(CCc4ccccc43)CC2)CC1` [Compound 5a, 1,4-Bis[spiro[indan-1,4'-piperidin]-1'-yl]butane] yielded a pIC50 of 8.51. In the case of `Fc1ccc(C2=CCN(CCCCN3CC=C(c4ccc(F)cc4)CC3)CC2)cc1` [Compound 6a, 1,4-Bis[4-(4-fluorophenyl)-1,2,3,6-tetrahydropyridin-1-yl]butane], the pIC50 was 9.51. Work on `Fc1ccc(C2CCN(CCN(CCN3CCC(c4ccc(F)cc4)CC3)c3ccccc3)CC2)cc1` [Compound 7a, N,N-Bis[2-[4-(4-fluorophenyl)piperidin-1-yl]ethyl]aniline] yielded a pIC50 of 8.44. Work on `Fc1ccc(C(CCN2CCC3(CC2)OCc2ccccc23)CCN2CCC3(CC2)OCc2ccccc23)cc1` [Compound 7b, 1,5-Bis[spiro[isobenzofuran-1(3 H),4'-piperidin]-1'-yl]-3-(4-fluorophenyl)pentane, difumarate] yielded a pIC50 of 9.14. With `c1ccc2c(c1)COC21CCN(CCSCCN2CCC3(CC2)OCc2ccccc23)CC1` [Compound 8a, Bis[2-spiro[isobenzofuran-1(3 H),4'-piperidin]-1-ylethyl]sulphide, difumarate] the pIC50 was 9.11. With `O=S(=O)(CCN1CCC2(CC1)OCc1ccccc12)CCN1CCC2(CC1)OCc1ccccc12` [Compound 9a, Bis[2-spiro[isobenzofuran-1(3 H),4'-piperidin]-1'-ylethyl]sulphone] the pIC50 was 5.74. `c1ccc2c(c1)COC21CCN(CCOCCN2CCC3(CC2)OCc2ccccc23)CC1` [Compound 10a, Bis[2-spiro[isobenzofuran-1(3 H),4'-piperidin]-1'-ylethyl]ether,dihydrochloride] gave a pIC50 of 8.60. Molecule `Cc1ccc2c(c1)COC21CCN(CCCCCCN2CCC3(CC2)OCc2cc(C)ccc23)CC1` [Compound 11a, 1,6-Bis[5-methyl-spiro[isebenzofuran-1(3 H),4'-piperidin]-1-yl]hexane] has a pIC50 of 8.01. With `OC(CN1CCC(c2ccc(F)cc2)CC1)CN1CCC(c2ccc(F)cc2)CC1` [Compound 12a, 1,3-Bis[4-(4-fluorophenyl)piperidin-1-yl]-2-propanol] the pIC50 was 8.62. For `O=C(CN1CCN(c2ccc(F)cc2)CC1)CN1CCN(c2ccc(F)cc2)CC1` [Compound 13a, 1,3-Bis[4-(4-fluorophenyl)piperazin-1-yl]-2-propanone], the pIC50 was 5.60.

Tested on: not given
Assay: not given
Details: clinical; Snyder and Largent 1989; cited from earlier work
In the case of `C[C@@H]1CN(CCCn2c3ccccc3c3ccccc32)C[C@H](C)N1` [Rimcazole, reference compound], the “effects in the treatment of psychosis” value is given as “clinically shows effects in the treatment of psychosis”.

From patent US5684012A, “Dimeric piperidine, tetrahydropyridine and piperazine derivatives” (H. Lundbeck A/S, priority 1992, dated 1997)
